According to patent US20020010209A1, “Use of benzopyranols to treat neurological disorders” (priority 1996, published 2002):

System: trigemino-vascular system
Experiment: Trigeminal nerve model in anaesthetised cats (TGN stimulation-induced reduction in carotid vascular resistance)
Format: in vivo, cat
Settings: for % Change in TGN-reduction in carotid vascular resistance at 4 hours following continuous iv infusion (mean ± sem) / % Changes of TGW-induced reduction in carotid vascular resistance 3 hours (mean ± sem): anaesthetised cat
Protocol: Trigeminal nerve model in anaesthetised cats
Cats were anaesthetised with α-chloralose (90-110 mg/kg i.v.) and artificially respired with room air. Body temperature was maintained at 37-38 C. A femoral artery was cannulated for recording of blood pressure and heart rate. Arterial blood flow was recorded by a Doppler flow probe placed around the right common carotid artery. Bipolar stainless electrodes were stereotaxically placed into each trigeminal ganglion. Guanethidine (3 mg/kg i.v.) was then administered and 45 min allowed for stabilisation. […]

[1] = continuous iv infusion 3.4 μmol/h, at 4 hours
[2] = intraduodenal administration 10 mg.kg, after 3 hours
[3] = intravenous administration at 3.4 μmol/h, at 4 hours

Row | Structure (SMILES) | % Change in TGN-reduction in carotid vascular resistance at 4 hours following continuous iv infusion (mean ± sem) [1] | % Changes of TGW-induced reduction in carotid vascular resistance 3 hours (mean ± sem) (intraduodenal 10 mg/kg in labrasol) | inhibition of TGN-induced reduction in carotid vascular resistance (in words) [2] | inhibition of TGN-induced reduction in carotid vascular resistance (in words) [3] | % Change in TGN-reduction in carotid vascular resistance at 4 hours following continuous iv infusion (mean ± sem) (continuous iv infusion 11 μmol/h, at 4 hours) | % Changes of TGW-induced reduction in carotid vascular resistance 3 hours (mean ± sem) (intraduodenal 10 mg/kg in methylcellulose) | effects on TGN stimulation-induced reductions in carotid vascular resistance (in words) (guanethidine treated anaesthetised cat) | inhibition of trigeminal nerve mediated responses (guanethidine treated anaesthetised cat, intraduodenal bolus 10 mg/kg, 2 hours post administration, n=4)
1 | CC(=O)c1ccc2c(c1)[C@H](NC(=O)c1ccc(F)cc1)[C@@H](O)C(C)(C)O2 (relative stereo) [Compound 1, trans-6-acetyl-4S-(4-fluorobenzoylamino)-3,4-dihydro-2,2-dimethyl-2H-1-benzopyran-3R-ol] | −29.1 ± 3.7 % | −43 ± 12.9 % | significant inhibition | significant inhibition | – | – | – | –
2 | CC(=O)c1ccc2c(c1)[C@H](NC(=O)c1ccc(F)c(Cl)c1)[C@H](O)C(C)(C)O2 (relative stereo) [Compound 2, cis-6-acetyl-4S-(3-chloro-4-fluorobenzoylamino)-3,4-dihydro-2,2-dimethyl-2H-1-benzopyran-3S-ol] | −30.0 ± 6.6 % | – | significant inhibition | significant inhibition | −21.8 ± 14 % | −69% | – | –
3 | CC(=O)c1ccc2c(c1)[C@H](NC(=O)c1cc(F)cc(F)c1)[C@@H](O)C(C)(C)O2 (relative stereo) [Compound 3, trans-6-acetyl-4S-(3,5-difluorobenzoylamino)-3,4-dihydro-2,2-dimethyl-2H-1-benzopyran-3R-ol] | – | – | – | – | – | – | marked effects | 77%
